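In this assay, cells in 96-well plates receive the compound at five concentrations for 48 hours. Endpoints are linearly interpolated between the surrounding concentrations. The concentration for 50% growth inhibition is given as GI50. TGI: total growth inhibition.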
Assays:
Assay in all cases: inhibition of tumour cell growth, NCI panel, 48 h
[1] = tested on: HOP-62 NSCLC
[2] = tested on: RPMI-8226 leukemia
[3] = tested on: NCI-H226 lung
[4] = tested on: CAKI-1 renal
[5] = tested on: OVCAR-3 ovarian
[6] = tested on: SF-295 CNS
[7] = tested on: OVCAR-8 ovarian
[8] = tested on: SF-539 CNS
[9] = tested on: SN12C renal
[10] = tested on: SNB-19 CNS

Compound: COc1cc(C2c3cc4c(cc3[C@@H](Nc3ccc(N5CCOCC5)cc3)C3COC(=O)[C@H]23)OCO4)cc(OC)c1O (stereo not given in full)
- TGI [1]: 0.829 µM
- TGI [2]: 12.6 µM
- TGI [3]: 2.9 µM
- TGI [4]: 2.63 µM
- TGI [5]: 13.2 µM
- TGI [6]: 2.42 µM
- TGI [7]: 3.95 µM
- TGI [8]: 2.32 µM
- TGI [9]: 2.12 µM
- TGI [10]: 2.72 µM

Compound: N/C(=N\N=C/c1cc(Cl)cc(Cl)c1O)NO
- TGI [1]: 12.5 µM
- TGI [2]: 39.9 µM
- TGI [3]: 9.82 µM
- TGI [4]: 10.1 µM
- TGI [5]: 53.6 µM
- TGI [6]: 15.2 µM
- TGI [7]: 19 µM
- TGI [8]: 8.34 µM
- TGI [9]: 33.4 µM
- TGI [10]: > 53.9 µM

Compound: Cn1nc2ccc3nccc(NCCNCCCl)c3c2n1
- TGI [1]: > 100 µM
- TGI [2]: > 100 µM
- TGI [3]: > 100 µM
- TGI [5]: > 100 µM
- TGI [6]: > 100 µM
- TGI [7]: > 100 µM
- TGI [8]: > 100 µM
- TGI [9]: > 100 µM
- TGI [10]: > 100 µM

Compound: CCOC(=O)C1CCn2c(nc3c(=O)n(C)c(=O)n(C)c32)S1 (stereo not given)
- TGI [1]: > 100 µM
- TGI [2]: > 100 µM
- TGI [3]: > 100 µM
- TGI [4]: > 100 µM
- TGI [5]: > 100 µM
- TGI [6]: > 100 µM
- TGI [7]: > 100 µM
- TGI [8]: > 100 µM
- TGI [9]: > 100 µM
- TGI [10]: > 100 µM

Compound: CC1=NN(C(=O)c2ccccc2)C(=O)C1N=Nc1ccccc1C(=O)O (stereo not given)
- TGI [1]: > 100 µM
- TGI [2]: > 100 µM
- TGI [3]: > 73.7 µM
- TGI [4]: > 100 µM
- TGI [5]: > 27.5 µM
- TGI [6]: > 100 µM
- TGI [7]: > 100 µM
- TGI [8]: > 100 µM
- TGI [9]: > 100 µM
- TGI [10]: > 100 µM

Compound: CCNC(=O)CCCCC(=O)c1c(C)[nH]c(/C=C2\N=C(c3ccc[nH]3)C=C2OC)c1C
- GI50 [1]: 1.1 µM
- TGI [1]: 2.88 µM
- GI50 [2]: 2.79 µM
- TGI [2]: > 100 µM
- GI50 [3]: 20.3 µM
- TGI [3]: 41.1 µM
- GI50 [4]: 2.09 µM
- TGI [4]: 5 µM
- GI50 [5]: 1.85 µM
- TGI [5]: 3.67 µM
- GI50 [6]: 2.81 µM
- TGI [6]: 7.6 µM
- GI50 [7]: 2.96 µM
- TGI [7]: 7.73 µM
- GI50 [8]: 1.59 µM
- TGI [8]: 3.34 µM
- GI50 [9]: 2.47 µM
- TGI [9]: 6.16 µM
- GI50 [10]: 6.74 µM
- TGI [10]: 19.2 µM

Compound: O=C(/C=C\c1ccc(OCCCCCC[P+](c2ccccc2)(c2ccccc2)c2ccccc2)cc1)c1ccc2c(c1)OCCO2
- GI50 [2]: 0.296 µM
- TGI [2]: 1.3 µM
- GI50 [4]: 1.84 µM
- TGI [4]: 3.88 µM
- GI50 [5]: 0.423 µM
- TGI [5]: 1.61 µM
- GI50 [6]: 1.78 µM
- TGI [6]: 3.46 µM
- GI50 [10]: 0.462 µM
- TGI [10]: 1.74 µM

Compound: O=C(O)C1C2CCC(C2)C1c1ccccc1 (stereo not given)
- TGI [1]: > 100 µM
- TGI [2]: > 100 µM
- TGI [3]: > 100 µM
- TGI [4]: > 100 µM
- TGI [5]: > 100 µM
- TGI [6]: > 100 µM
- TGI [7]: > 100 µM
- TGI [8]: > 100 µM
- TGI [9]: > 100 µM
- TGI [10]: > 100 µM

Compound: CN(C)S(=O)(=O)c1cccc(-c2nc3sc4c(c3c(=O)[nH]2)CCCC4)c1
- GI50 [1]: 3.73 µM
- TGI [1]: > 100 µM
- GI50 [2]: > 100 µM
- TGI [2]: > 100 µM
- GI50 [3]: 2.38 µM
- TGI [3]: > 100 µM
- GI50 [4]: > 100 µM
- TGI [4]: > 100 µM
- GI50 [6]: 1.35 µM
- TGI [6]: 4.01 µM
- GI50 [7]: 1.52 µM
- TGI [7]: > 100 µM
- GI50 [10]: 2.91 µM
- TGI [10]: > 100 µM

Compound: COC(=O)C[C@](O)(CCC(C)(C)O)C(=O)O[C@@H]1C(OC)=C[C@]23CCCN2CCc2cc4c(cc2[C@H]13)OCO4
- TGI [1]: 0.59 µM
- TGI [2]: 0.701 µM
- TGI [3]: 0.124 µM
- TGI [4]: 1.64 µM
- TGI [5]: 0.459 µM
- TGI [6]: 0.61 µM
- TGI [7]: 0.571 µM
- TGI [8]: 0.102 µM
- TGI [9]: 1.07 µM
- TGI [10]: 0.28 µM

Compound: Cc1cc(C)c(N)c(C)c1N
- TGI [1]: > 100 µM
- TGI [2]: > 100 µM
- TGI [5]: > 100 µM
- TGI [6]: > 100 µM
- TGI [7]: > 100 µM
- TGI [8]: > 100 µM
- TGI [9]: > 100 µM
- TGI [10]: > 100 µM

Compound: CCOC(=O)CCc1c(C)c2c(O)cc(O)cc2oc1=O
- TGI [1]: > 100 µM
- TGI [2]: > 100 µM
- TGI [3]: > 100 µM
- TGI [4]: > 100 µM
- TGI [5]: > 100 µM
- TGI [6]: > 100 µM
- TGI [7]: > 100 µM
- TGI [8]: > 100 µM
- TGI [9]: > 100 µM
- TGI [10]: > 100 µM

Compound: O=C(/C=C/c1ccsc1)c1ccc(Cl)s1
- TGI [1]: > 100 µM
- TGI [2]: 45.5 µM
- TGI [3]: > 100 µM
- TGI [4]: > 100 µM
- TGI [6]: > 100 µM
- TGI [7]: > 100 µM
- TGI [8]: > 100 µM
- TGI [9]: > 100 µM
- TGI [10]: > 100 µM

Compound: CC(C(O)c1ccccc1)[N+](=O)[O-] (stereo not given)
- TGI [1]: > 100 µM
- TGI [2]: 47.5 µM
- TGI [3]: 48.3 µM
- TGI [4]: 30.6 µM
- TGI [5]: 17.3 µM
- TGI [6]: 61.4 µM
- TGI [7]: 35 µM
- TGI [8]: 49.1 µM
- TGI [9]: 35.6 µM
- TGI [10]: 66 µM
